Experimental data published in ChEMBL document CHEMBL1201862, “PubChem BioAssay data set” (2004).
pIC50: −log10 of the molar value. Calls of active or inactive are those of the source.

Assays:
[1] = molecular target: Epstein-Barr nuclear antigen 1 (Epstein-Barr virus (strain B95-8) (HHV-4) (Human herpesvirus 4), UniProt P03211); assay: EBNA-1 inhibitors, dose response, biochemical, fluorescence polarization, 1536-well (AID 2381); parameters: species or system human gammaherpesvirus 4;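 also: fluorescence polarization of a Cy5 DNA probe bound by EBNA-1 protein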
[2] = molecular target: Lytic switch protein BZLF1 (Epstein-Barr virus (strain B95-8) (HHV-4) (Human herpesvirus 4), UniProt P03206); assay: EBV ZTA inhibitors, dose response, counter-screen for EBNA-1 inhibitor project, biochemical, fluorescence polarization, Epstein-Barr virus, 1536-well (AID 2377); parameters: species or system human gammaherpesvirus 4;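 also: fluorescence polarization of Cy5-labelled ZRE DNA probe bound by purified Zta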
[3] = Luminescence Cell-Based Dose Confirmation HTS to Identify Inhibitors of Polyadenylation.; type: functional
[4] = inhibitors of intracellular T. cruzi replication, confirmation, NIH3T3 host cells, beta-gal luminescence (AID 2044); type: functional, cell-based;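 also: intracellular parasites grown in NIH/3T3 mouse fibroblasts as host cells; luminescent beta-galactosidase reporter signal from transgenic T. cruzi replicating inside host cells; inhibitors lower the luminescence signal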
[5] = Luminescence-based dose response cell-based high throughput screening assay for cytotoxic compounds using the IEC-6 intestinal epithelial cell line. [Related pubchem assays: 1858 (Summary AID.), 1825 (Counterscreen.), 1907 (Confirmation screen.)]; type: functional
[6] = cytotoxicity toward NIH3T3 fibroblasts, dose response, counter-screen, cell-based, ATP luminescence, mouse fibroblasts (AID 2010); type: functional;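 also: cells exposed to compound for about 90 hours before reading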
[7] = test system: INS1; assay: beta cell apoptosis inhibitors, cytokine rescue, dose response, luminescence, retest (AID 449756); type: functional, cell-based; details: Rattus norvegicus;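 also: cell death triggered by IL-1 beta plus TNF-alpha plus IFN-gamma mixture; protective hits raise ATP signal compared with cytokine alone wells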
[8] = inhibitors of HIV Env-driven cell fusion, dose response, cherry-pick (AID 652057); type: functional, cell-based
[9] = CEM21 lymphoblast cell cytotoxicity, dose response, cytotoxicity control for viral fusion inhibitor project, CellTiter-Glo luminescence, cherry-picked (AID 652042); type: functional, cell-based;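 also: potency for signal decrease meaning cytotoxicity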
[10] = ZM109 Env clade C HIV-1 fusion inhibitors, dose response, HeLa effector, CEM target cells, luciferase, cherry-pick (AID 652058); type: functional, cell-based
[11] = off-target signal loss in HeLa-CEM21 co-culture – HeLa F-luc CTL cells, cherry-picked, counter-screen for HIV-1 Env fusion inhibitor project, dose response (AID 652040); type: functional, cell-based;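 also: potency for signal decrease marking cytotoxic or nonspecific inhibition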
[12] = inhibitors of clade B AD8 Env fusion, dose response, cell-based, cherry-pick (AID 652062); type: functional;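 also: luciferase signal from cell-cell fusion driven by HIV-1 clade B AD8 Env; potency is for inhibitors of fusion seen as a drop in luminescence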
[13] = molecular target: T1, COUP transcription factor 2 (Homo sapiens, UniProt P24468); assay: Luminescence-based cell-based high throughput dose response assay to identify inhibitors of COUP-TFII (NR2F2).; type: functional;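 also: HEK293 cells transiently cotransfected with COUP-TFII expression vector and reporter; luciferase reporter luminescence driven by COUP-TFII from the pX2-168 reporter plasmid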
T1 sequence (P24468 whole entry): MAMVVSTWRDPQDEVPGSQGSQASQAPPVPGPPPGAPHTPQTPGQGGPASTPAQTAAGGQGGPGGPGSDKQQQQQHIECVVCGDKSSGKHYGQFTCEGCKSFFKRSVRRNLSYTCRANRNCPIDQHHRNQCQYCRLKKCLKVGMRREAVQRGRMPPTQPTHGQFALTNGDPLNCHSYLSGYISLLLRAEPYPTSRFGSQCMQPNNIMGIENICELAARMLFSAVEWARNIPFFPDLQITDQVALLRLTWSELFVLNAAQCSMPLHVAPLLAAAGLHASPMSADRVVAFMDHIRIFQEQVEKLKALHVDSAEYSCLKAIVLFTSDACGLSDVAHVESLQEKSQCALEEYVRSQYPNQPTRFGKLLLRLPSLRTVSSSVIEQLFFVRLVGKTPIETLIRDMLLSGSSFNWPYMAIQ

[14] = test system: Streptococcus sp. 'group A'; assay: growth inhibition of control SK(-) GAS strain, dose response, counter-screen for streptokinase expression inhibitor project, luminescence, kanamycin, BacTiterGlo, confirmation (AID 1900); type: functional, organism-based
[15] = test system: BJ; assay: cytotoxicity toward BJ-TERT fibroblasts, dose response, cell-based, RAS-independent, luminescence (AID 1933); type: functional; details: Homo sapiens
[16] = cells; type: functional, cell-based
[17] = molecular target: T2, Beta-galactosidase (Escherichia coli, UniProt Q8VNN2); assay: PubChem AID 485352; type: functional
[18] = molecular target: T3, Streptokinase A (Streptococcus pyogenes serotype M1, UniProt P10520); assay: S. pyogenes streptokinase expression inhibitors, potency, dose response, plasminogen activation absorbance, OD405 (AID 1914); type: functional, Streptococcus pyogenes M1 GAS;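 also: secreted streptokinase activity via plasminogen activation per viability signal from cell pellet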
T3 sequence (P10520 whole entry): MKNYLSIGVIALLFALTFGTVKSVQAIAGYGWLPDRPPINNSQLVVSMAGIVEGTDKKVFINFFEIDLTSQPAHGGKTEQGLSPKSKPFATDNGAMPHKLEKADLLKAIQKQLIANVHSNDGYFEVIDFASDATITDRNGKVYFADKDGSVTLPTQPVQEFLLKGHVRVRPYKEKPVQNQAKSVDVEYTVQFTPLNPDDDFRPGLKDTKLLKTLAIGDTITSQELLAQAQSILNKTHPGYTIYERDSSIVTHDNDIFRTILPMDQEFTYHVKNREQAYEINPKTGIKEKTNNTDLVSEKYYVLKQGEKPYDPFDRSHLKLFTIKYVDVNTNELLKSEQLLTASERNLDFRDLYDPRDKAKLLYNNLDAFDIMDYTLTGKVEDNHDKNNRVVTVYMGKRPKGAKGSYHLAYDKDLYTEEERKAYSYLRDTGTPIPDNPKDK

[19] = test system: BJ; assay: cells; type: functional, cell-based; details: Homo sapiens
[20] = molecular target: T4, Type-1 angiotensin II receptor (Homo sapiens, UniProt P30556); assay: AT1 receptor antagonists, dose response, selectivity assay for APJ receptor antagonist project, cell-based, uHTS hits (AID 463214); type: functional;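 also: antagonist potency against angiotensin II stimulated AT1 response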
T4 sequence (P30556 whole entry): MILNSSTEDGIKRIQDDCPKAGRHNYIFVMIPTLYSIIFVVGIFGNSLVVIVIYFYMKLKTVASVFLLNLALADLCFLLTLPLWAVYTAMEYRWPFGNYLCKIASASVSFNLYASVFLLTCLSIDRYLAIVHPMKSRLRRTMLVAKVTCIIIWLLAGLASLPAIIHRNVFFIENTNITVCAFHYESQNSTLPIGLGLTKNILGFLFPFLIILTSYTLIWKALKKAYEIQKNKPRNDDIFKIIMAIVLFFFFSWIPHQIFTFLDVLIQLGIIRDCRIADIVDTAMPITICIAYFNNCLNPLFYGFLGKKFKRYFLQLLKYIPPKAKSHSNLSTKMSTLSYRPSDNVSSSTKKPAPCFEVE

[21] = cells; type: functional, cell-based; remark: listed apart in the source
[22] = molecular target: T5, Kappa-type opioid receptor (Homo sapiens, UniProt P41145); type: functional
[23] = molecular target: T2, Beta-galactosidase; type: functional
[24] = test system: BJ; assay: cytotoxicity toward BJ-TERT-LT-ST fibroblasts, dose response, cell-based, RAS-independent, luminescence (AID 1935); type: functional; details: Homo sapiens;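 also: BJ fibroblasts immortalized with TERT plus LT and ST oncogenes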
[25] = molecular target: T5, Kappa-type opioid receptor; type: functional; remark: listed apart in the source
[26] = cytotoxicity toward DRD oncogenic fibroblasts, dose response, cell-based, non-viral oncogenic, luminescence (AID 1934); type: functional; details: Homo sapiens
[27] = test system: Streptococcus; assay: Group A Streptococcus viability loss, dose response, counter-screen for streptokinase expression inhibitor project, luminescence, BacTiterGlo (AID 1915); type: functional, organism-based;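 also: potency for reduction of bacterial viability or growth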
[28] = THP-1 cell cytotoxicity, dose response, cytotoxicity control for non-replicating M. tuberculosis project (AID 489025); type: functional
[29] = HepG2 cell cytotoxicity, dose response, cytotoxicity control for non-replicating M. tuberculosis project (AID 489018); type: functional; details: Mycobacterium tuberculosis
[30] = Vero E6 cell cytotoxicity, dose response, cytotoxicity control for non-replicating M. tuberculosis project, secondary assay (AID 492998); type: functional, VeroE6; details: Vero C1008
[31] = cytotoxicity in HEK-293T cells, dose response, cytotoxicity control for TCR NF-kB inhibitor project, luminescence, T-cell screen hits (AID 489026); type: functional, cell-based;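 also: cells exposed to compound about 14 hours before the viability readout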
[32] = molecular target: T6, Heat shock factor protein 1 (Mus musculus, UniProt P38532); assay: HSF1 potentiators in luciferase reporter cells, confirmation, cell-based, NIH3T3, luminescence, dose retest (AID 435004); type: functional;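 also: stress induced by proteasome inhibitor MG132 added 30 min after compound; luciferase reporter driven by HSF1 response element in NIH3T3 cells; actives raise luminescence as potentiators of the MG132 stress response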
T6 sequence (P38532 whole entry): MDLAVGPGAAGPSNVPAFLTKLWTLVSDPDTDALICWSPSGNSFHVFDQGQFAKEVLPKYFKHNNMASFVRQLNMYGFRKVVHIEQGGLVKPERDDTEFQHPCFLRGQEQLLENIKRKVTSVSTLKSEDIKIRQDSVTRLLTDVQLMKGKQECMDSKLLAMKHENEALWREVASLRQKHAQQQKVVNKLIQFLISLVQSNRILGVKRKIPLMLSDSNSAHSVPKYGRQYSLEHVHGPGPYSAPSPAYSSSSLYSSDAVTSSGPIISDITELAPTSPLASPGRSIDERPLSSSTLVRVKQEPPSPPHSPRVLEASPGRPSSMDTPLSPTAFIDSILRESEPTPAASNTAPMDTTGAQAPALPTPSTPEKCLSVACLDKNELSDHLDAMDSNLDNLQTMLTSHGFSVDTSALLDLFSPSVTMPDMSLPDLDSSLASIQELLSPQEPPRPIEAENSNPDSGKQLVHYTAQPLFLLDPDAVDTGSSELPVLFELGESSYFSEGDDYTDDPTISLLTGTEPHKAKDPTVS

[33] = cells; type: functional
[34] = test system: BJ; assay: cytotoxicity toward Ras-transformed BJeLR fibroblasts, dose response, cell-based, alamar blue fluorescence, cherrypicked samples (AID 2631); type: functional; details: Homo sapiens;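 also: confirmatory dose-response assay in RAS-dependent BJ fibroblasts engineered with TERT, LT and ST, with cytotoxicity read by fluorescence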
[35] = test system: Vero; assay: cells; type: functional; details: Chlorocebus sabaeus
[36] = AlphaScreen signal interference compounds, dose response, artefact control for ARNT-TACC3 interaction inhibitor project, biochemical, luminescence, cherry-pick (AID 651705); type: functional;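 also: AlphaScreen bead proximity signal that flags compounds interfering with the detection technology; potency reflects signal decrease which marks the compound as an assay artifact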

T5 sequence (P41145 whole entry): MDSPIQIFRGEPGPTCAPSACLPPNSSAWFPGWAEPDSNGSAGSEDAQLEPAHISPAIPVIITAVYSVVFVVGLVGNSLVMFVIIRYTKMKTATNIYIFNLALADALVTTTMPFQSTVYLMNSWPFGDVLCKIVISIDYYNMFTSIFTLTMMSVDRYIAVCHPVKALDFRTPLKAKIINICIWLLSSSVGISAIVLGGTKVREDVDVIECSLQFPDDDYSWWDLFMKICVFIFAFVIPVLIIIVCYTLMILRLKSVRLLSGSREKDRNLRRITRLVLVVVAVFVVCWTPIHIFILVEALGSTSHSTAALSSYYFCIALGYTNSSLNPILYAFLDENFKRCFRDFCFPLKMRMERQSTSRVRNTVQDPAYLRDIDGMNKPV
Sequence of Lytic switch protein BZLF1 (P03206 whole entry): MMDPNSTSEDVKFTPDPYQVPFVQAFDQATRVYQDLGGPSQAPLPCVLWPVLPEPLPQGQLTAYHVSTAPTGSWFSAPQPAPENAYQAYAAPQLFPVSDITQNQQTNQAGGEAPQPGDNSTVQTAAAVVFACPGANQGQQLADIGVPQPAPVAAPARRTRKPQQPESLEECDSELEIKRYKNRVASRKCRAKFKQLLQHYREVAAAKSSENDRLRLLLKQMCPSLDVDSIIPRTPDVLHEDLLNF
Sequence of Epstein-Barr nuclear antigen 1 (P03211 whole entry): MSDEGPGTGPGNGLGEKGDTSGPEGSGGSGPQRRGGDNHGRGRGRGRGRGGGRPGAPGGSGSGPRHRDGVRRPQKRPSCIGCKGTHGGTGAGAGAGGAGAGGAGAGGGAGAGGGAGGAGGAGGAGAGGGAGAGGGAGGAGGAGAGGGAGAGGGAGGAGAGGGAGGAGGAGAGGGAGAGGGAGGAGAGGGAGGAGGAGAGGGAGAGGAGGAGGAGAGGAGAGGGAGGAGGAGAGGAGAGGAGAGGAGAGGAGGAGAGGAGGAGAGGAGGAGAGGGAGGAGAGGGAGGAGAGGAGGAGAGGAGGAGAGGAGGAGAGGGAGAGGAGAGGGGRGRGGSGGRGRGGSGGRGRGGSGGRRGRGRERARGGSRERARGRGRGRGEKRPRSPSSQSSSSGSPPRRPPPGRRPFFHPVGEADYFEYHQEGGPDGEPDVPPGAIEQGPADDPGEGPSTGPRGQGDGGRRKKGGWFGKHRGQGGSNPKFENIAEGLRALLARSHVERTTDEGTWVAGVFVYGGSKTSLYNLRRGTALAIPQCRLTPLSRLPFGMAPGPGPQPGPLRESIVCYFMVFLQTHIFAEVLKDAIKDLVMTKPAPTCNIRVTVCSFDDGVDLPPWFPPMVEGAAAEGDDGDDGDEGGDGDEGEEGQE
T2 sequence (Q8VNN2 whole entry): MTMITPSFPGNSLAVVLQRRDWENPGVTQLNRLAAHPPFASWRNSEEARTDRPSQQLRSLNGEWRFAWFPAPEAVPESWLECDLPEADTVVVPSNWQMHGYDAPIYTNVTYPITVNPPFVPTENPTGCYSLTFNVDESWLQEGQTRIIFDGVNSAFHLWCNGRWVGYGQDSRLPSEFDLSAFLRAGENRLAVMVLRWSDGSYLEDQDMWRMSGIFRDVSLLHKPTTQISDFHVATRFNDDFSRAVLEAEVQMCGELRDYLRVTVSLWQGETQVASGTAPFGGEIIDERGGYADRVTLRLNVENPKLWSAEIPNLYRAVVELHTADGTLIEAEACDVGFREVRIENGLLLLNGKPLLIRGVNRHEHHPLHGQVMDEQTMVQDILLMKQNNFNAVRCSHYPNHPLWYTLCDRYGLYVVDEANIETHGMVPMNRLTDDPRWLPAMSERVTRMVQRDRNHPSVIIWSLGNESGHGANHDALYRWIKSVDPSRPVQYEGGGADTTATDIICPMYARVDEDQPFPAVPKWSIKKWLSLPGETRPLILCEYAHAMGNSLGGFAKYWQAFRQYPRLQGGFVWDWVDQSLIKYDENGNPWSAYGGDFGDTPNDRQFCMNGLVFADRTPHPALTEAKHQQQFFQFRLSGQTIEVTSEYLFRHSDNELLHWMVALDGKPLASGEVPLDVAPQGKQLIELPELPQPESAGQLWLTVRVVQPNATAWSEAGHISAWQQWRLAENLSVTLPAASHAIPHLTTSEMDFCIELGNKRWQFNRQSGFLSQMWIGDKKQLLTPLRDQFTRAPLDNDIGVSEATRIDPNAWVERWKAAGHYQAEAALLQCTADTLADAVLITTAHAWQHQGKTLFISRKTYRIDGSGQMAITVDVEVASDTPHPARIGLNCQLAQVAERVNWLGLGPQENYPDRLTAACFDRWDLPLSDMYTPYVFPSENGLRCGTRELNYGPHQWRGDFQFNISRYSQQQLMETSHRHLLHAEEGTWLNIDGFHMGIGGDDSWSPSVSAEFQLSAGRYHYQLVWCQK

## Cc1ccc(C(=O)Nc2nc3ccc(S(C)(=O)=O)cc3s2)cc1C
[1]
  IC50: 4.48 µM (active)
[2]
  IC50: > 111 µM (not active)

## Cc1nc2ccc(NC(=O)Cc3ccc4c(c3)OCCO4)cc2s1
[3]
  EC50: > 120 µM (not active)

## Cc1cc(NC(=O)COC(=O)c2oc3c(ccc4ccccc43)c2C)no1
[1]
  IC50: 9.17 µM (active)
[2]
  IC50: > 111 µM (not active)

## CC(C)(C)c1ccc(C2CC2C(=O)N/N=C\c2ccc[nH]2)cc1 (stereo not given)
[4]
  EC50: 0.389 µM (active)
[5]
  IC50: 1.44 µM (active)
[6]
  EC50: 3.25 µM (active)
[7]
  AC50: 0.854 µM (active)
[8]
  AC50: 3.52 µM (active)
[9]
  AC50: 4.53 µM (active)
[10]
  AC50: 1.5 µM (active)
[11]
  AC50: 2.75 µM (active)
[12]
  AC50: 1.97 µM (active)
[13]
  IC50: 2.66 µM (active)

## O=C(N/N=C(\c1ccccc1)c1cccnc1)c1cccc(F)c1
[14]
  EC50: 5.5 µM (active)
[15]
  EC50: 12.4 µM (active)
[16]
  EC50: 28.7 µM (active)
[17]
  EC50: > 40 µM (inactive)
[18]
  EC50: > 150 µM (not active)
[19]
  EC50: 5.95 µM (active)
[5]
  IC50: 0.747 µM (active)
[20]
  IC50: 10.8 µM (active)
[21]
  EC50: > 350 µM (not active)
[22]
  IC50: 13.1 µM (active)
[23]
  EC50: > 31.5 µM (inactive)
[24]
  EC50: 4.43 µM (active)
[25]
  pIC50: < 4.49
[26]
  EC50: 5.35 µM (inconclusive)
[27]
  EC50: 11 µM (active)
[28]
  CC50: 0.726 µM (active)
[29]
  CC50: 9.37 µM (active)
[30]
  CC50: 1.18 µM (active)
[31]
  IC50: > 80 µM (inactive)
[32]
  EC50: 21.5 µM (active)
[33]
  IC50: 1.73 µM (active)
[34]
  EC50: 0.939 µM (active)
[7]
  AC50: 0.519 µM (active)
[35]
  CC50: 1.7 µM (active)
[36]
  AC50: 120 µM (active)
